# Laboratory results from paper PMC10721329, “Quisinostat is a brain-penetrant radiosensitizer in glioblastoma” (JCI Insight, 2023).
# Where “and” joins values, the source holds several entries; their conditions need not be identical. Equal values may be shown once. Read-outs that look alike come from different tables or passages of the source.
# Test: Total and unbound QST in tumor and contralateral brain at survival end point, orthotopic GB126 PDX
# Assay type: in vivo
# Details: for UNBOUND [QST], Brain / UNBOUND [QST], Plasma / UNBOUND [QST], Tumor: individual mice; for concentration at 3 h: athymic nude, mouse
# Procedure: All mice included in the survival study were processed for end-point PK and PD analyses once moribund. Plasma, tumor, and contralateral brain tissues were harvested 3 hours after dosing with 10 mg/kg QST, allowing for direct comparison of long-term treatment with the PK-PD data collected from acute (1-week) treatment with QST or combination therapy (Figure 8A). […] There were no significant differences in total or unbound drug concentrations in tumor or brain tissue between the monotherapy or combination therapy cohorts (Figure 8, E and F). Immunoblot analysis of dissected tumor samples confirmed that QST induced substantial histone H3 hyperacetylation in brain tumors, compared with untreated animals, consistent with an in vivo on-target effect (Figure 9, A and B).
# QST concentrations in specimens were measured using reverse-phase LC on the AB SCIEX QTRAP6500+ LC-MS/MS system by operating electrospray in the positive ion mode. For liquid chromatographic separation, gradient elution was performed using a Phenomenex Kinetex F5 100 Å column (100 × 2.1 mm, 2.6 μm). The initial composition of the mobile phase was 70% phase A (0.1% formic acid in water) and 30% phase B (0.1% formic acid in 1:1 acetonitrile/methanol) with a 0.35 mL/min flow rate. Gradient elution was achieved as follows: mobile phase (B) was maintained at 30% from 0 to 0.3 minutes, increased to 95% from 0.3 to 0.8 minutes, maintained at 95% from 0.8 to 2.5 minutes, and decreased to 30% from 2.5 to 2.8 minutes. The total run time was 3.5 minutes. The internal standard used in this study was D8-infigratinib. The retention times for QST and D8-infigratinib were 1.6 and 1.8 minutes, respectively. Mass-to-charge ratio transitions were as follows: 395.20 → 144.00 (QST) and 568.08 → 321.00 (D8-infigratinib). LC-MS/MS analysis was performed using an Analyst 1.7 Chromatographic Data System. See Supplemental Methods for detailed PK experiments.
# Gy on MWF for a total of 6 Gy in the first week of treatment. Treatment groups included vehicle (50% PEG-3000), QST (10 mg/kg) alone, 6 Gy whole-brain IR treatment with vehicle, and 6 Gy whole-brain IR treatment with 10 mg/kg QST. QST was administered to mice through intraperitoneal injections two hours prior to whole-brain radiation treatment. Upon completion of the radiation regimen, IR-treated mice subsequently received QST or vehicle alone for the rest of the experiment. Tumor growth and treatment response was monitored by IVIS bioluminescence […]
# once per week. […]
# Tissue from the hemisphere contralateral to the tumor was also collected as a normal brain/nontumor reference sample. For PK analyses, the mice were anesthetized with isoflurane, and at least 300 μL of blood was drawn from the right ventricle of the heart. The blood was collected in tubes containing 10 μL of 0.1 M KOH in EDTA to prevent blood coagulation. Blood samples were immediately centrifuged at 3000 rpm for 10 minutes at 4 °C to allow separation of plasma. After collection of the blood, the tumor was dissected out of the brain and flash -frozen.
# Both plasma and erythrocytes were flash-frozen for subsequent analysis. […]
# vortex-mixed for 10 s and centrifuged at 12000 g at 4 °C for 10 min. A 100-µL aliquot of the supernatant was transferred to an autosampler vial, and 5 µL was injected into the LC-MS/MS system for analysis. Whenever necessary, appropriate dilutions were made to accommodate the analysis of small volume samples.
# Brain and Brain Tumor Sample Preparation
# Normal brain and brain tumor tissue homogenates were prepared by 1:4 (mass/volume) ratio with PBS. Samples were homogenized under 6.00 m/s speed for 40 seconds with 3 cycles by Bead Ruptor Elite homogenizer (Omni International). Plasma was used as a surrogate matrix for brain/tumor homogenate. Brain homogenate samples from in vivo studies were prepared as described for plasma samples. Analyte and IS were extracted by protein precipitation with methanol containing IS. After centrifugation at 12000 rpm for 10 minutes at 4 °C, 5 µL of […]
smiles,measurement,setting,value
"Cn1cc(CNCC2CCN(c3ncc(C(=O)NO)cn3)CC2)c2ccccc21 [QST, quisinostat]","UNBOUND [QST], Brain",Combination (QST + IR) cohort,3.62 nM and 1.48 nM and 2.18 nM
same,"UNBOUND [QST], Plasma",Combination (QST + IR) cohort,158.39 nM and 19.58 nM and 43.86 nM
same,"UNBOUND [QST], Tumor",Combination (QST + IR) cohort,66.7 nM and 35.51 nM and 128.5 nM and 21.89 nM and 23.43 nM
same,"UNBOUND [QST], Brain",QST cohort,1.049 nM and 4.404 nM and 6.584 nM and 1.529 nM
same,"UNBOUND [QST], Plasma",QST cohort,35.734 nM and 100.413 nM and 74.395 nM and 209.24 nM
same,"UNBOUND [QST], Tumor",QST cohort,93.34 nM and 77.02 nM and 33.36 nM and 81.88 nM
same,concentration at 3 h,"brain (contralateral to tumor), intraperitoneal, 10 mg/kg, Combo cohort, mean, read-out: Total QST, Brain, Mean",48.5 nM
same,concentration at 3 h,"brain (contralateral to tumor), intraperitoneal, 10 mg/kg, Combo cohort, mean, read-out: Unbound QST, Brain, Mean",2.42 nM
same,concentration at 3 h,"brain (contralateral to tumor), intraperitoneal, 10 mg/kg, QST cohort, mean, read-out: Total QST, Brain, Mean",67.8 nM
same,concentration at 3 h,"brain (contralateral to tumor), intraperitoneal, 10 mg/kg, QST cohort, mean, read-out: Unbound QST, Brain, Mean",3.39 nM
same,concentration at 3 h,"in vivo, orthotopic GB126, end point (moribund), 3 hours after 10 mg/kg, read-out: unbound QST in tumors, mean",71.4 nM
same,concentration at 3 h,"peritumoral (contralateral) brain tissue, intraperitoneal, 10 mg/kg, orthotopic GB126, end point (moribund), 3 hours after 10 mg/kg, read-out: unbound QST in peritumoral brain tissue, mean",3.4 nM
same,concentration at 3 h,"plasma, intraperitoneal, 10 mg/kg, Combo cohort, mean, read-out: Total QST, Plasma, Mean",141 nM
same,concentration at 3 h,"plasma, intraperitoneal, 10 mg/kg, Combo cohort, mean, read-out: Unbound QST, Plasma, Mean",55.7 nM
same,concentration at 3 h,"plasma, intraperitoneal, 10 mg/kg, QST cohort, mean, read-out: Total QST, Plasma, Mean",265 nM
same,concentration at 3 h,"plasma, intraperitoneal, 10 mg/kg, QST cohort, mean, read-out: Unbound QST, Plasma, Mean",105 nM
same,concentration at 3 h,"tumor, intraperitoneal, 10 mg/kg, Combo cohort, mean, read-out: Total QST, Tumor, Mean",1100 nM
same,concentration at 3 h,"tumor, intraperitoneal, 10 mg/kg, Combo cohort, mean, read-out: Unbound QST, Tumor, Mean",55.2 nM
same,concentration at 3 h,"tumor, intraperitoneal, 10 mg/kg, QST cohort, mean, read-out: Total QST, Tumor, Mean",1430 nM
same,concentration at 3 h,"tumor, intraperitoneal, 10 mg/kg, QST cohort, mean, read-out: Unbound QST, Tumor, Mean",71.4 nM
